# From publication PMC6100082, “Pyridine-Ureas as Potential Anticancer Agents: Synthesis and In Vitro Biological Evaluation” (Molecules : A Journal of Synthetic Chemistry and Natural …, 2018)
# Assays:
# Format in all cases: cell-based, human
# NCI 58 cell line panel = test: NCI one-dose SRB assay, whole panel / subpanel summary
# Description: (§1) The structures of all the newly prepared pyridine-ureas 8a–n were submitted to the National Cancer Institute (NCI) Developmental Therapeutic Program. Eight compounds 8b, 8d, 8e, 8i, 8j and 8l–n were selected to be examined for their in vitro growth inhibitory activity. The anticancer assays were carried out according to the protocol of the Drug Evaluation Branch, NCI, Bethesda. The selected pyridine-ureas were tested at one dose primary anticancer assay against a panel of approximately 58 cancer lines (concentration 10^−5 M). The tested human cancer cell lines emerged from nine different cancer subtypes: leukemia, colon, melanoma, ovarian, lung, CNS, renal, breast and prostate cancers. The sulforhodamine B (SRB) protein assay was adopted to estimate the cell viability and growth. The results were reported as mean-graph of the percentage growth of the treated cells, and presented as percentage growth inhibition (GI%) caused by the test compounds (Table 2).
# (§2) The anticancer assays were performed in accordance with the protocol of the Drug Evaluation Branch, NCI, Bethesda. A 48 h drug exposure protocol was used and sulforhodamine B (SRB) protein assay was applied to estimate the cell viability and growth, as reported earlier.
# CCRF-CEM = test: NCI one-dose SRB assay (Leukemia)
# Description: as §1, §2
# HL-60(TB) = test: NCI one-dose SRB assay (Leukemia)
# Description: as §1, §2
# K-562 = test: NCI one-dose SRB assay (Leukemia)
# Description: as §1, §2
# MOLT-4 = test: NCI one-dose SRB assay (Leukemia)
# Description: as §1, §2
# RPMI-8226 = test: NCI one-dose SRB assay (Leukemia)
# Description: as §1, §2
# SR = test: NCI one-dose SRB assay (Leukemia)
# Description: as §1, §2
# SF-268 = test: NCI one-dose SRB assay (CNS Cancer)
# Description: as §1, §2
# SF-295 = test: NCI one-dose SRB assay (CNS Cancer)
# Description: as §1, §2
# SF-539 = test: NCI one-dose SRB assay (CNS Cancer)
# Description: as §1, §2
# SNB-19 = test: NCI one-dose SRB assay (CNS Cancer)
# Description: as §1, §2
# SNB-75 = test: NCI one-dose SRB assay (CNS Cancer)
# Description: as §1, §2
# U251 = test: NCI one-dose SRB assay (CNS Cancer)
# Description: as §1, §2
# IGROV1 = test: NCI one-dose SRB assay (Ovarian Cancer)
# Description: as §1, §2
# NCI/ADR-RES = test: NCI one-dose SRB assay (Ovarian Cancer)
# Description: as §1, §2
# OVCAR-3 = test: NCI one-dose SRB assay (Ovarian Cancer)
# Description: as §1, §2
# OVCAR-4 = test: NCI one-dose SRB assay (Ovarian Cancer)
# Description: as §1, §2
# OVCAR-5 = test: NCI one-dose SRB assay (Ovarian Cancer)
# Description: as §1, §2
# OVCAR-8 = test: NCI one-dose SRB assay (Ovarian Cancer)
# Description: as §1, §2
# SK-OV-3 = test: NCI one-dose SRB assay (Ovarian Cancer)
# Description: as §1, §2
# 786-0 = test: NCI one-dose SRB assay (Renal Cancer)
# Description: as §1, §2
# A498 = test: NCI one-dose SRB assay (Renal Cancer)
# Description: as §1, §2
# RXF 393 = test: NCI one-dose SRB assay (Renal Cancer)
# Description: as §1, §2
# SN12C = test: NCI one-dose SRB assay (Renal Cancer)
# Description: as §1, §2
# TK-10 = test: NCI one-dose SRB assay (Renal Cancer)
# Description: as §1, §2
# UO-31 = test: NCI one-dose SRB assay (Renal Cancer)
# Description: as §1, §2
# [1] = Homo sapiens, 10 μM, read-out: Percentage growth inhibition (GI%)
smiles,measurement,setting,value
"COc1ccc(-c2ccc(NC(=O)Nc3cccc(Cl)c3)c(C)n2)cc1OC [Compound 8j, 1-(3-Chlorophenyl)-3-(6-(3,4-dimethoxyphenyl)-2-methylpyridin-3-yl) Urea]",inhibition at 10 µM,"NCI 58 cell line panel; Homo sapiens, 10 μM, one dose, read-out: mean inhibition (mean % growth inhibition over NCI 58 cell line panel)",22 to 34%
same,Mean Growth Percent,"NCI 58 cell line panel; One Dose Mean Graph, 1.00E-5 Molar",78.01%
same,Growth Percent,CCRF-CEM; 1.00E-5 Molar,68.29%
same,inhibition at 10 µM,CCRF-CEM; [1],32%
same,Growth Percent,HL-60(TB); 1.00E-5 Molar,63.92%
same,inhibition at 10 µM,HL-60(TB); [1],37%
same,inhibition at 10 µM,"K-562; Homo sapiens, K562, K-562, 10 μM, read-out: Percentage growth inhibition (GI%)",60%
same,Growth Percent,"K-562; K-562, 1.00E-5 Molar",40.86%
same,inhibition at 10 µM,"MOLT-4; Homo sapiens, MOLT-4, 10 μM, read-out: Percentage growth inhibition (GI%)",58%
same,Growth Percent,"MOLT-4; MOLT-4, 1.00E-5 Molar",42.64%
same,inhibition at 10 µM,"RPMI-8226; Homo sapiens, RPMI-8226, 10 μM, read-out: Percentage growth inhibition (GI%)",49%
same,Growth Percent,"RPMI-8226; RPMI-8226, 1.00E-5 Molar",51.32%
same,Growth Percent,SR; 1.00E-5 Molar,52.07%
same,inhibition at 10 µM,SR; [1],48%
same,inhibition at 10 µM,"SF-268; Homo sapiens, SF-268, 10 μM, read-out: Percentage growth inhibition (GI%)",13%
same,Growth Percent,"SF-268; SF-268, 1.00E-5 Molar",87.00%
same,inhibition at 10 µM,"SF-295; Homo sapiens, SF-295, 10 μM, read-out: Percentage growth inhibition (GI%)",17%
same,Growth Percent,"SF-295; SF-295, 1.00E-5 Molar",83.73%
same,inhibition at 10 µM,"SF-539; Homo sapiens, SF-539, 10 μM, read-out: Percentage growth inhibition (GI%)",11%
same,Growth Percent,"SF-539; SF-539, 1.00E-5 Molar",89.70%
same,inhibition at 10 µM,"SNB-19; Homo sapiens, SNB-19, 10 μM, read-out: Percentage growth inhibition (GI%)",< 10%
same,Growth Percent,"SNB-19; SNB-19, 1.00E-5 Molar",97.00%
same,inhibition at 10 µM,"SNB-75; Homo sapiens, SNB-75, 10 μM, read-out: Percentage growth inhibition (GI%)",16%
same,Growth Percent,"SNB-75; SNB-75, 1.00E-5 Molar",84.12%
same,inhibition at 10 µM,"U251; Homo sapiens, U-251, U251, 10 μM, read-out: Percentage growth inhibition (GI%)",17%
same,Growth Percent,"U251; U251, 1.00E-5 Molar",83.31%
same,inhibition at 10 µM,"IGROV1; Homo sapiens, IGROV-1, IGROV1, 10 μM, read-out: Percentage growth inhibition (GI%)",< 10%
same,Growth Percent,"IGROV1; IGROV1, 1.00E-5 Molar",100.28%
same,Growth Percent,NCI/ADR-RES; 1.00E-5 Molar,84.81%
same,inhibition at 10 µM,NCI/ADR-RES; [1],16%
same,inhibition at 10 µM,"OVCAR-3; Homo sapiens, OVCAR-3, 10 μM, read-out: Percentage growth inhibition (GI%)",10%
same,Growth Percent,"OVCAR-3; OVCAR-3, 1.00E-5 Molar",90.37%
same,inhibition at 10 µM,"OVCAR-4; Homo sapiens, OVCAR-4, 10 μM, read-out: Percentage growth inhibition (GI%)",< 10%
same,Growth Percent,"OVCAR-4; OVCAR-4, 1.00E-5 Molar",91.75%
same,inhibition at 10 µM,"OVCAR-5; Homo sapiens, OVCAR-5, 10 μM, read-out: Percentage growth inhibition (GI%)",12%
same,Growth Percent,"OVCAR-5; OVCAR-5, 1.00E-5 Molar",88.21%
same,inhibition at 10 µM,"OVCAR-8; Homo sapiens, OVCAR-8, 10 μM, read-out: Percentage growth inhibition (GI%)",10%
same,Growth Percent,"OVCAR-8; OVCAR-8, 1.00E-5 Molar",90.16%
same,inhibition at 10 µM,"SK-OV-3; Homo sapiens, SK-OV-3, 10 μM, read-out: Percentage growth inhibition (GI%)",17%
same,Growth Percent,"SK-OV-3; SK-OV-3, 1.00E-5 Molar",83.62%
same,Growth Percent,"786-0; 786-0, 1.00E-5 Molar",71.87%
same,inhibition at 10 µM,"786-0; Homo sapiens, 786-0, 10 μM, read-out: Percentage growth inhibition (GI%)",29%
same,Growth Percent,"A498; A498, 1.00E-5 Molar",69.84%
same,inhibition at 10 µM,"A498; Homo sapiens, A498, 10 μM, read-out: Percentage growth inhibition (GI%)",31%
same,inhibition at 10 µM,"RXF 393; Homo sapiens, RXF 393, 10 μM, read-out: Percentage growth inhibition (GI%)",18%
same,Growth Percent,"RXF 393; RXF 393, 1.00E-5 Molar",82.62%
same,Growth Percent,SN12C; 1.00E-5 Molar,86.84%
same,inhibition at 10 µM,SN12C; [1],14%
same,inhibition at 10 µM,"TK-10; Homo sapiens, TK-10, 10 μM, read-out: Percentage growth inhibition (GI%)",< 10%
same,Growth Percent,"TK-10; TK-10, 1.00E-5 Molar",99.31%
same,inhibition at 10 µM,"UO-31; Homo sapiens, UO-31, 10 μM, read-out: Percentage growth inhibition (GI%)",21%
same,Growth Percent,"UO-31; UO-31, 1.00E-5 Molar",79.44%
